Series [1] is described as follows: Cytotoxicity against human 293T cells expressing Gluc assessed as inhibition of cell proliferation at 20 uM after 24 hrs by CCK8 assay relative to control. The conditions noted are these: 293T (HEK-293T) cells expressing Gluc. The series is classed as cell-based. A general note: Formazan colour is commonly taken as a measure of viable cells.
The nature of a further series: cells. The conditions noted are these: Influenza A virus, HEK-293T.
The nature of series [2]: Cytotoxicity against human 293T cells expressing Gluc assessed as inhibition of cell proliferation after 24 hrs by CCK8 assay. The series is classed as cell-based. The conditions noted are these: 293T (HEK-293T) cells expressing Gluc.
The next series in a line: in vitro. The conditions noted are these: human, 293T cells expressing Gluc.

The record followed here is ChEMBL document CHEMBL4007499, “Anti-influenza triterpenoid saponins (saikosaponins) from the roots of Bupleurum marginatum var. stenophyllum” (Bioorg Med Chem Lett, 2017).

The term inhibition denotes the relative decrease from the control value, in per cent. By pEC50 is commonly meant −log10 of the EC50, conventionally taken in molar units. Read a low pEC50 as a large EC50. As a reminder, the CC50 is the concentration that lowers cell viability or growth by half.

pEC50: −log10 of the molar value. A value given as a limit tells only on which side of the number the result lay.

Description for cells: Antiviral activity against Influenza virus A/WSN/33(H1N1) infected in human 293T cells assessed as inhibition of viral replication preincubated for 2 hrs followed by viral infection measured after 24 hrs by luciferase reporter gene assay
Description for in vitro: Selectivity index, ratio of CC50 for human 293T cells expressing Gluc to EC50 for Influenza A virus WSN/33(H1N1)

Regarding `C[C@H]1O[C@@H](O[C@H]2CC[C@@]3(C)[C@@H](CC[C@]4(C)[C@@H]3C=CC3=C5CC(C)(C)CC[C@]5(CO)C(=O)C[C@]34C)[C@]2(C)CO)[C@H](O)[C@@H](O[C@@H]2O[C@H](CO)[C@@H](O)[C@H](O)[C@H]2O)[C@H]1O`, in series [1], the inhibition at 24 h, 20 µM stood at 9%.
As for `C[C@H]1O[C@@H](O[C@H]2CC[C@]3(C)[C@H]4C=C[C@]56OC[C@@]7(CCC(C)(C)C[C@H]75)[C@@H](O)C[C@@]6(C)[C@]4(C)CC[C@H]3C2(C)C)[C@H](O)[C@@H](O[C@@H]2O[C@H](CO)[C@@H](O)[C@H](O)[C@H]2O)[C@H]1O`, the inhibition at 24 h, 20 µM in series [1] came to 44.8%. This molecule had a pEC50 in “cells” of 5.67. The cytotoxic concentration (CC50) at 24 h in series [2] was determined as 2.85 µM. The selectivity ratio in the series “in vitro” is 1.33.
As for `C[C@H]1O[C@@H](O[C@H]2CC[C@@]3(C)[C@@H](CC[C@]4(C)[C@@H]3C=CC3=C5CC(C)(C)CC[C@]5(CO)[C@@H](O)C[C@]34C)[C@]2(C)CO)[C@H](O)[C@@H](O)[C@H]1O`, the inhibition at 24 h, 20 µM in series [1] was found to be 0%. This molecule also gave a pEC50 in “cells” of 5.07. The CC50 at 24 h in series [2] was determined as 24.5 µM. Moreover, the selectivity ratio in the series “in vitro” came to 2.89.
With `C[C@H]1O[C@@H](O[C@H]2CC[C@@]3(C)[C@@H](CC[C@]4(C)[C@@H]3C=C[C@]35OC[C@@]6(CCC(C)(C)C[C@H]63)C(=O)C[C@]54C)[C@]2(C)CO)[C@H](O)[C@@H](O[C@@H]2O[C@H](CO)[C@@H](O)[C@H](O)[C@H]2O)[C@H]1O`, the inhibition at 24 h, 20 µM in series [1] amounted to 49.7%. The same molecule gave a pEC50 in “cells” of 5.58. Besides, the CC50 at 24 h in series [2] was determined as 3.8 µM. Moreover, in the series “in vitro”, the selectivity ratio stood at 1.43.
As to `CO[C@@H]1C=C2[C@@H]3CC(C)(C)CC[C@]3(CO)[C@@H](O)C[C@@]2(C)[C@]2(C)CC[C@H]3C(C)(C)[C@@H](O[C@@H]4O[C@H](CO[C@@H]5O[C@H](CO)[C@@H](O)[C@H](O)[C@H]5O)[C@@H](O[C@@H]5O[C@@H](C)[C@H](O)[C@@H](O)[C@H]5O)[C@H](O)[C@H]4O)CC[C@]3(C)[C@@H]12`, the inhibition at 24 h, 20 µM in series [1] was determined as 0%.
For `C[C@@H]1O[C@@H](O[C@H]2[C@H](O)[C@@H](O)[C@H](O[C@H]3CC[C@@]4(C)[C@@H](CC[C@]5(C)[C@@H]4C=CC4=C6CC(C)(C)CC[C@]6(CO)[C@@H](O)[C@H](O)[C@]45C)[C@]3(C)CO)O[C@@H]2CO[C@@H]2O[C@H](CO)[C@@H](O)[C@H](O)[C@H]2O)[C@H](O)[C@H](O)[C@H]1O`, the inhibition at 24 h, 20 µM in series [1] is 0%. Besides, the pEC50 in “cells” is 5.12. Further, the CC50 at 24 h in series [2] is over 200 µM. In addition, the selectivity ratio in the series “in vitro” was over 26.1.
As for `C[C@H]1O[C@@H](O[C@H]2CC[C@@]3(C)[C@@H](CC[C@]4(C)[C@@H]3C=CC3=C5CC(C)(C)CC[C@]5(CO)C(=O)[C@H](O)[C@]34C)[C@]2(C)CO)[C@H](O)[C@@H](O[C@@H]2O[C@H](CO)[C@@H](O)[C@H](O)[C@H]2O)[C@H]1O`, the inhibition at 24 h, 20 µM in series [1] was 0%.
With `C[C@@H]1O[C@@H](O[C@H]2[C@H](O)[C@@H](O)[C@H](O[C@H]3CC[C@]4(C)[C@H]5C=CC6=C7CC(C)(C)CC[C@]7(CO)[C@@H](O)[C@H](O)[C@@]6(C)[C@]5(C)CC[C@H]4C3(C)C)O[C@@H]2CO[C@@H]2O[C@H](CO)[C@@H](O)[C@H](O)[C@H]2O)[C@H](O)[C@H](O)[C@H]1O`, the inhibition at 24 h, 20 µM in series [1] is 5.14%. The pEC50 in the series “cells” is 5.00. Also, the CC50 at 24 h in series [2] was over 200 µM. Moreover, the selectivity ratio in “in vitro” is over 19.8.
In the case of `C/C=C/C(=O)OC[C@H]1O[C@@H](O[C@H]2[C@@H](O)[C@@H](C)O[C@@H](O[C@H]3CC[C@@]4(C)[C@@H](CC[C@]5(C)[C@@H]4C=C[C@]46OC[C@@]7(CCC(C)(C)C[C@H]74)[C@@H](O)C[C@]65C)[C@]3(C)CO)[C@@H]2O)[C@H](O)[C@@H](O)[C@@H]1O`, the inhibition at 24 h, 20 µM in series [1] worked out at 44.2%. For the same molecule, in the series “cells”, the pEC50 was 5.05. In addition, the CC50 at 24 h in series [2] is 7.02 µM. Further, the selectivity ratio in the series “in vitro” is 0.79.
Take `C[C@H]1O[C@@H](O[C@H]2CC[C@@]3(C)[C@@H](CC[C@]4(C)[C@@H]3C=CC3=C5C[C@@](C)(CO)CC[C@]5(CO)[C@@H](O)C[C@]34C)[C@]2(C)CO)[C@H](O)[C@@H](O[C@@H]2O[C@H](CO)[C@@H](O)[C@H](O)[C@H]2O)[C@H]1O`: the inhibition at 24 h, 20 µM in series [1] came to 5.87%.
As for `C[C@H]1O[C@@H](O[C@H]2CC[C@]3(C)C4=CC=C5[C@@H]6CC(C)(C)CC[C@]6(CO)[C@H](O)C[C@@]5(C)[C@]4(C)CC[C@H]3[C@]2(C)CO)[C@H](O)[C@@H](O[C@@H]2O[C@H](CO)[C@@H](O)[C@H](O)[C@H]2O)[C@H]1O`, in series [1], the inhibition at 24 h, 20 µM was 1.39%. In “cells”, this molecule showed a pEC50 of 4.66. In series [2], the half-maximal cytotoxic concentration (CC50) at 24 h came out at 38.2 µM. In the series “in vitro”, the selectivity ratio worked out at 1.75.
Take `C[C@@H]1O[C@@H](O[C@H]2[C@H](O)[C@@H](O)[C@H](O[C@H]3CC[C@@]4(C)[C@@H](CC[C@]5(C)[C@@H]4CC=C4[C@@H]6CC(C)(C)CC[C@]6(CO)[C@@H](O)C[C@]45C)[C@]3(C)CO)O[C@@H]2CO[C@@H]2O[C@H](CO)[C@@H](O)[C@H](O)[C@H]2O)[C@H](O)[C@H](O)[C@H]1O`: the inhibition at 24 h, 20 µM in series [1] came to 0%. For the same molecule, in the series “cells”, the negative-log EC50 (pEC50) was 4.75. The CC50 at 24 h in series [2] was over 200 µM. The selectivity ratio in “in vitro” is over 11.2.
Take `C[C@H]1O[C@@H](O[C@H]2CC[C@]3(C)C4=CC=C5[C@@H]6CC(C)(C)CC[C@]6(CO)[C@@H](O)C[C@@]5(C)[C@]4(C)CC[C@H]3[C@]2(C)CO)[C@H](O)[C@@H](O[C@@H]2O[C@H](CO)[C@@H](O)[C@H](O)[C@H]2O)[C@H]1O`: in series [1], the inhibition at 24 h, 20 µM worked out at 1.39%. In the series “cells”, this molecule gave a pEC50 of 4.80. Besides, the CC50 at 24 h in series [2] is 18.9 µM. The selectivity ratio in “in vitro” was 1.19.
On to `CO[C@@H]1C=C2[C@@H]3CC(C)(C)CCC3=C(O)C(=O)[C@@]2(C)[C@]2(C)CC[C@H]3[C@](C)(CO)[C@@H](O[C@@H]4O[C@H](C)[C@H](O)[C@H](O[C@@H]5O[C@H](CO)[C@@H](O)[C@H](O)[C@H]5O)[C@H]4O)CC[C@]3(C)[C@@H]12`, for which the inhibition at 24 h, 20 µM in series [1] turned out to be 0%.
Turning to `NC(=O)c1ncn([C@@H]2O[C@H](CO)[C@@H](O)[C@H]2O)n1` [RIBAVIRIN], the inhibition at 24 h, 20 µM in series [1] was found to be 0%. This molecule also showed a pEC50 in “cells” of 4.75. The CC50 at 24 h in series [2] is over 205 µM. The selectivity ratio in “in vitro” is over 11.4.
